Experimental data reported in BigSolDB 2.1.

N#Cc1ccc2c(c1)OCO2
solubility (mole fraction)
Conditions | 278.15 K | 283.15 K | 288.15 K | 293.15 K | 298.15 K | 303.15 K | 308.15 K | 313.15 K | 318.15 K | 323.15 K
in 1,4-dioxane | – | – | 0.174 | 0.197 | 0.221 | 0.256 | 0.283 | 0.325 | 0.358 | 0.406
in 2-methoxyethanol | 0.0495 | 0.0606 | 0.0722 | 0.0849 | 0.101 | 0.119 | 0.137 | 0.16 | 0.192 | 0.221
in DMF | 0.172 | 0.193 | 0.212 | 0.239 | 0.264 | 0.293 | 0.32 | 0.36 | 0.39 | 0.433
in acetone | 0.101 | 0.118 | 0.136 | 0.158 | 0.181 | 0.207 | 0.237 | 0.269 | 0.307 | 0.349
in acetonitrile | 0.0673 | 0.0811 | 0.0999 | 0.12 | 0.143 | 0.173 | 0.203 | 0.243 | 0.283 | 0.33
in ethanol | 0.00686 | 0.00878 | 0.0111 | 0.0133 | 0.0166 | 0.0214 | 0.0266 | 0.034 | 0.0435 | 0.0548
in ethyl acetate | 0.0892 | 0.102 | 0.118 | 0.14 | 0.166 | 0.187 | 0.217 | 0.247 | 0.282 | 0.322
in isopropanol | 0.00473 | 0.00606 | 0.00772 | 0.00933 | 0.0127 | 0.0168 | 0.0202 | 0.0268 | 0.0338 | 0.0445
in isopropyl acetate | 0.0657 | 0.0784 | 0.0948 | 0.112 | 0.13 | 0.155 | 0.179 | 0.211 | 0.243 | 0.277
in methanol | 0.00823 | 0.0104 | 0.0123 | 0.0157 | 0.0192 | 0.024 | 0.031 | 0.0387 | 0.0495 | 0.0617
in methyl acetate | 0.102 | 0.118 | 0.137 | 0.16 | 0.184 | 0.21 | 0.24 | 0.274 | 0.31 | 0.353
in n-propanol | 0.00603 | 0.00758 | 0.00949 | 0.0122 | 0.0159 | 0.02 | 0.0255 | 0.0329 | 0.0433 | 0.0573
in n-propyl acetate | 0.0785 | 0.0928 | 0.113 | 0.128 | 0.149 | 0.176 | 0.204 | 0.235 | 0.27 | 0.31
